Target: T1, human mTOR (Homo sapiens, UniProt P42345)
T1 construct: purchased Invitrogen
Assay: Human mTOR enzyme assay (Z'-lyte peptide FRET)
Format: biochemical
Settings: mTOR enzyme activity, compound at 1.0 μm, 10 μM ATP
Experimental: mTOR reaction buffer (50 mM HEPES, pH 7.5, 5 mM MgCl2, 5 mM MnCl2, 1 mM EGTA, 1 mM DTT, 0.01% BRIJ-35, 0.01% NaN3) containing human mTOR (Invitrogen), 10 μM ATP and 2 μM Z′-lyte 11Ser/Thr peptide (Invitrogen) is added to the well and the mixture is reacted at room temperature for 1 hr.
Development Buffer containing Development Reagent B (for Z′-lyte peptide, Invitrogen) was added, and the mixture is reacted at room temperature for 30 min. The fluorescence at 520 nm and fluorescence at 445 nm are measured with excitation at 400 nm using SpectraMax M5e (Molecular Device). The ratio of the obtained 445 nm fluorescence value/520 nm fluorescence value is calculated, and changes in the fluorescence resonance energy transfer (FRET) of Z′-lyte peptide are detected as the enzyme activity.

T1 sequence (P42345 1360-2549 limits assumed): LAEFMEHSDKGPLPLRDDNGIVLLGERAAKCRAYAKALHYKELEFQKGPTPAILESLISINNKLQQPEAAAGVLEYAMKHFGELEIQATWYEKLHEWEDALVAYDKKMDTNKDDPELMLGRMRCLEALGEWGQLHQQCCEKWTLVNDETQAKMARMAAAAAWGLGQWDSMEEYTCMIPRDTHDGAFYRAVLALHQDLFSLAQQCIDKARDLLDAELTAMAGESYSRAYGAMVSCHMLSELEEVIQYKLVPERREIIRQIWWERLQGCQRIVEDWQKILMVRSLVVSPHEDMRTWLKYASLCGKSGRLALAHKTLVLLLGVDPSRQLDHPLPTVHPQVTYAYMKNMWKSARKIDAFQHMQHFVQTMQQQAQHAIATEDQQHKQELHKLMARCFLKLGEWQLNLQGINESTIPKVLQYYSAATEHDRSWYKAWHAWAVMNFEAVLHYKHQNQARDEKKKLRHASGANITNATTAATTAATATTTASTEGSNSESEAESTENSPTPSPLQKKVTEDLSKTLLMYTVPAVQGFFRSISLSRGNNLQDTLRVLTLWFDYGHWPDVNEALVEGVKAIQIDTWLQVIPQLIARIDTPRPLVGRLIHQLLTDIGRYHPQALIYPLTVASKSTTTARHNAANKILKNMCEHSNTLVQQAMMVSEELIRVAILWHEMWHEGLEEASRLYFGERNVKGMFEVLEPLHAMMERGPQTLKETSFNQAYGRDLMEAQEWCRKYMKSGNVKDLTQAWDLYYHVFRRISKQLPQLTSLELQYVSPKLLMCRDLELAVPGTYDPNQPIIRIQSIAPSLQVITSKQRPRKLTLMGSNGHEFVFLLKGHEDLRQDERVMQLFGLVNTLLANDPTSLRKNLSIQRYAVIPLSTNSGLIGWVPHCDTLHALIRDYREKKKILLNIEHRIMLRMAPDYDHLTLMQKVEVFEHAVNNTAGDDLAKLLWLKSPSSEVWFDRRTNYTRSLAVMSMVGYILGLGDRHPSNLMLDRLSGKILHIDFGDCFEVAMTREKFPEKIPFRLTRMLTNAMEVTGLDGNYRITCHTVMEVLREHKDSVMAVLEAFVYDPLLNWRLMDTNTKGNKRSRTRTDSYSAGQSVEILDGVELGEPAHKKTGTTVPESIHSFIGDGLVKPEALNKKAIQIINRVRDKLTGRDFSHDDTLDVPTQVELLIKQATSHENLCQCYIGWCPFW

Compound | Inhibitory rate at 1.0 μm (%)
Cc1nn2ccc(OCCN3CCOCC3)cc2c1-c1nc(-c2ccccc2)c(-c2nnc[nH]2)s1 [Example 31-B, 2-methyl-5-(2-morpholin-4-ylethoxy)-3-[4-phenyl-5-(4H-1,2,4-triazol-3-yl)-1,3-thiazol-2-yl]pyrazolo[1,5-a]pyridine di-p-toluenesulfonate] | 93
Cc1nn2ccc(OCCO)cc2c1-c1nc(-c2ccccc2)c(-c2nnc[nH]2)s1 [Example 33-B, 2-({2-methyl-3-[4-phenyl-5-(4H-1,2,4-triazol-3-yl)-1,3-thiazol-2-yl]pyrazolo[1,5-a]pyridin-5-yl}oxy)ethanol] | 91

Source: patent US9090601B2, “Thiazole derivatives” (Millennium Pharmaceuticals, Inc., priority 2009, dated 2015)
